In ChEMBL document CHEMBL1201862, “PubChem BioAssay data set” (2004):
Active and inactive are the calls of the source.

What was measured:
[1] = blockers of CAL PDZ ligand groove binding – biochemical, fluorescence polarization, untagged CAL PDZ, cherry-pick, dose response (AID 602267); format: functional
[2] = molecular target: T1, Replicative DNA helicase DnaB (Mycobacterium tuberculosis, UniProt P9WMR3); test: DnaB intein splicing inhibitors, dose response, biochemical, cell-free fluorescence (AID 449749); format: functional
T1 sequence (P9WMR3 whole entry): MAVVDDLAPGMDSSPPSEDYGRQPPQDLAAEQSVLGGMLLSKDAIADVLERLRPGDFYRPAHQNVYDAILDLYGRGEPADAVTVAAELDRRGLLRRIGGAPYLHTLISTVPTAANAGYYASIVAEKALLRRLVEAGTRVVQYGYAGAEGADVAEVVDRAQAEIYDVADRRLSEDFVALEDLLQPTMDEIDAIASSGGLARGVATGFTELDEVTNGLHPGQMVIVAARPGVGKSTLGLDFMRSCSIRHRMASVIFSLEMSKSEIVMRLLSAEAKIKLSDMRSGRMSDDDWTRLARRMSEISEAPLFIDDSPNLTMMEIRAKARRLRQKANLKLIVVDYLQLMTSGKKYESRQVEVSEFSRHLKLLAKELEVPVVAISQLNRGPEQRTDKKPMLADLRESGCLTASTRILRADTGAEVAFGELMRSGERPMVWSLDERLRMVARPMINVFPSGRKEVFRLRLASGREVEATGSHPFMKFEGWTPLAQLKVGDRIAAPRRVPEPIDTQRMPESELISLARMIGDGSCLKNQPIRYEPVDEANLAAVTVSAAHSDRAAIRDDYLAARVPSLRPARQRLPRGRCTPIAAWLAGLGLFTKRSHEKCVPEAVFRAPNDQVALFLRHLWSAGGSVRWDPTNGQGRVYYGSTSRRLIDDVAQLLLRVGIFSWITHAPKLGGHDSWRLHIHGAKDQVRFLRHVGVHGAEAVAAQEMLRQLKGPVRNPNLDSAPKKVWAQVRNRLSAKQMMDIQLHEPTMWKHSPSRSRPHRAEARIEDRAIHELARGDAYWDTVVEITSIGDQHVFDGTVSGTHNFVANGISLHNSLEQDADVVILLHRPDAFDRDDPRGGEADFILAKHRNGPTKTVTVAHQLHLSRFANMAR

Protein RecA = molecular target: T2, Protein RecA (Mycobacterium tuberculosis, UniProt P9WHJ3); test: Fluorescence Cell-Free Homogeneous Dose Retest to Identify Inhibitors of RecA-Intein Splicing Activity. [Related pubchem assays (depositor defined):AID2097, AID2223, AID489010, AID492950]; format: functional
T2 sequence (P9WHJ3 whole entry): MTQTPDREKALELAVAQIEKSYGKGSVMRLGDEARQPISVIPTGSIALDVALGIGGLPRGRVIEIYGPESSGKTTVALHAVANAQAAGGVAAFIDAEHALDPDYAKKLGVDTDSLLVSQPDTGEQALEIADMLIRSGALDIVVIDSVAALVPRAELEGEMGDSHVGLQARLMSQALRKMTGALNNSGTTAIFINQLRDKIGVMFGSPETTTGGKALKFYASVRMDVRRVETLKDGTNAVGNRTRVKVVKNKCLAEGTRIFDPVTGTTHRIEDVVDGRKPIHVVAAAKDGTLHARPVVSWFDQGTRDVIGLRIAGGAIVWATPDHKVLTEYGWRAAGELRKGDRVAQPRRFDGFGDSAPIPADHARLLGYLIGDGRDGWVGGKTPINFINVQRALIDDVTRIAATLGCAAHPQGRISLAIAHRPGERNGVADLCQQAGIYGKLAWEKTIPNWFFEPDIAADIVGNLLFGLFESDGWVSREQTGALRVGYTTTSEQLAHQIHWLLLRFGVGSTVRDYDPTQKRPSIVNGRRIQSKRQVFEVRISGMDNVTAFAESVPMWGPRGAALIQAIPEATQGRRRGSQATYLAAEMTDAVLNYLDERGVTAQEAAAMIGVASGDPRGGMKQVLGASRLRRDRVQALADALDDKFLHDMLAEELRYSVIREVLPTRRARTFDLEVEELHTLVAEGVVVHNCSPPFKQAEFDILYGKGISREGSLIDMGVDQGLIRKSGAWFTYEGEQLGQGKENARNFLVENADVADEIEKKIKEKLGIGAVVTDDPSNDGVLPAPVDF

[3] = molecular target: Eukaryotic translation initiation factor 4E (Mus musculus, UniProt P63073); test: blockers of eIF4G binding by eIF4E – biochemical, TR-FRET, dose response (AID 855); format: functional;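 also: potency for disrupting eIF4E binding to eIF4GI seen as loss of FRET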
[4] = molecular target: Cystic fibrosis transmembrane conductance regulator/Golgi-associated PDZ and coiled-coil motif-containing protein (Homo sapiens, UniProt P13569+Q9HD26); test: potency against CAL PDZ-peptide interaction – biochemical, fluorescence polarization, Cerulean-tagged CAL PDZ, cherry-picks, dose response (AID 504773)
Hexokinase HKDC1 = molecular target: T3, Hexokinase HKDC1 (Homo sapiens, UniProt Q2TB90); test: inhibition of HKDC1 glucose phosphorylation – biochemical, W721R variant, dose response (AID 504729); format: functional
T3 sequence (Q2TB90 whole entry): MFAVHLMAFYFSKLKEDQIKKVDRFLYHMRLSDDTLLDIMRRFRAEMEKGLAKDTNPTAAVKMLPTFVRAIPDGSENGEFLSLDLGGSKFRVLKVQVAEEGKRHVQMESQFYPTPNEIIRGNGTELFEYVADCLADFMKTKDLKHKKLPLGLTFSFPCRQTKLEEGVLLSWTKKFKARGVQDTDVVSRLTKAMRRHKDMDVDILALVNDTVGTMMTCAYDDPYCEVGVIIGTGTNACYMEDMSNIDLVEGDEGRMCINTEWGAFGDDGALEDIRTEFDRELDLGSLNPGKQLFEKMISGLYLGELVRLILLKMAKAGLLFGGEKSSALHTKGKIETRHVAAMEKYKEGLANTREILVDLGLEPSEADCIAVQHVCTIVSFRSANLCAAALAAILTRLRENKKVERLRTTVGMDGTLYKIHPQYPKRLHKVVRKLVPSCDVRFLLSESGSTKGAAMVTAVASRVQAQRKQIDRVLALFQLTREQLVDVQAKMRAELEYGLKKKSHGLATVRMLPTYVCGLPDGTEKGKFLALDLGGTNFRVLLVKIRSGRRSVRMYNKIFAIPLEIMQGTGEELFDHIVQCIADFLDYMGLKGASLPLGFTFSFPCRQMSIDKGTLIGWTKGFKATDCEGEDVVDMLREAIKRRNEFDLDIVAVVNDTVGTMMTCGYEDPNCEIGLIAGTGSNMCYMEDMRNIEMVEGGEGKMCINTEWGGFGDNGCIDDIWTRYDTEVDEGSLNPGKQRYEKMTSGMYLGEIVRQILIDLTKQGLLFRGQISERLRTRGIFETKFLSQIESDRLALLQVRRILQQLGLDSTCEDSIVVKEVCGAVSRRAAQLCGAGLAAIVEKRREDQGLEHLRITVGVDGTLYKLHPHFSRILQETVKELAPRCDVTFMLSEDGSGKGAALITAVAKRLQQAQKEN

Sequence of Cystic fibrosis transmembrane conductance regulator/Golgi-associated PDZ and coiled-coil motif-containing protein (P13569 whole entry, other chains not shown): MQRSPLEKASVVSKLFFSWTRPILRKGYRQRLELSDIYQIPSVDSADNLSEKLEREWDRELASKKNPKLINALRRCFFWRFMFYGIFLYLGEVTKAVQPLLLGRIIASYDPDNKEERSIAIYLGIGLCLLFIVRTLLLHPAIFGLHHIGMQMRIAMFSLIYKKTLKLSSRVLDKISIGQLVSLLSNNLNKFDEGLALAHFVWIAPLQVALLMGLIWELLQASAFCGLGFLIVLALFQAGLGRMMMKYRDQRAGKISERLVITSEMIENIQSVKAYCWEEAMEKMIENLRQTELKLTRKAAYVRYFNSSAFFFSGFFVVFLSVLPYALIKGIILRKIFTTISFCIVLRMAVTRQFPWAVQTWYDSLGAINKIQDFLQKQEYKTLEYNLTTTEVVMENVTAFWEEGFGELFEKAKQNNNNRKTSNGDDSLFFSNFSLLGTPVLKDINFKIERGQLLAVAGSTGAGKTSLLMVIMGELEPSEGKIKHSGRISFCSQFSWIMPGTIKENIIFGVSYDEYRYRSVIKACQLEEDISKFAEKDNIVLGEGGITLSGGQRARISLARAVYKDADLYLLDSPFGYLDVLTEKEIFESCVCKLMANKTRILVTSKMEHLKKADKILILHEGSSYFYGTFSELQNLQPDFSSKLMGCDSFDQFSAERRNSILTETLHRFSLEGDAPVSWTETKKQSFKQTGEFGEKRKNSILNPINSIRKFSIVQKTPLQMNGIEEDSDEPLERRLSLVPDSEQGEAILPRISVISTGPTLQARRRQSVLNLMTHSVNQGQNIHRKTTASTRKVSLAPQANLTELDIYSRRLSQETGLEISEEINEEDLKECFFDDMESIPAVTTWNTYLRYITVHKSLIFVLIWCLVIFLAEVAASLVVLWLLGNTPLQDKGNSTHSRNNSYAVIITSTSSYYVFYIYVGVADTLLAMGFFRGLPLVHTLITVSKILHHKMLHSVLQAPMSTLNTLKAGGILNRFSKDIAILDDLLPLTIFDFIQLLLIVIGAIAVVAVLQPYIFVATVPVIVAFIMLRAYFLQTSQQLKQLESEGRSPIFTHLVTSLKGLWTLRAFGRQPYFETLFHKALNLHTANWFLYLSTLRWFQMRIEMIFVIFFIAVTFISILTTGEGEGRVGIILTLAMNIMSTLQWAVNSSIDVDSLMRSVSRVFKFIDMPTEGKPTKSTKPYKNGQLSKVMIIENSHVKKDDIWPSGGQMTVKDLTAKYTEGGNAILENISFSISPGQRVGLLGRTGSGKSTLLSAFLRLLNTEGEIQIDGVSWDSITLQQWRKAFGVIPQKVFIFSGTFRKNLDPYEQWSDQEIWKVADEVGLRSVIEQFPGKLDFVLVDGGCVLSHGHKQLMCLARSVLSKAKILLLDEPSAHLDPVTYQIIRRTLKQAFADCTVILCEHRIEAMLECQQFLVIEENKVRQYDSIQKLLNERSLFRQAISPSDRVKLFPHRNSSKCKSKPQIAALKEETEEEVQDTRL
Sequence of Eukaryotic translation initiation factor 4E (P63073 whole entry): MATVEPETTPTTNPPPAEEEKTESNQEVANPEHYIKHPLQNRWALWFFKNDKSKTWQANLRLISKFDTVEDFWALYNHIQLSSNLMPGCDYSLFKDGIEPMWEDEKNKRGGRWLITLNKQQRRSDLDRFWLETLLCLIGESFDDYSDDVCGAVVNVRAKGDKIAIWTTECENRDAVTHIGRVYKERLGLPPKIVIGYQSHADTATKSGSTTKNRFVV

O=c1c2ccccc2nc2n1CCC2 [DEOXYVASICINONE]
active: AC50 [1] 60.4 µM | AC50 [2] 13.3 µM | EC50 (Protein RecA) 11.6 µM | IC50 [3] 6.2 µM | AC50 [4] 21.3 µM | IC50 (Hexokinase HKDC1) 4.32 µM
